One test addresses T1, human MRP-14 (hS100A9) (Homo sapiens, UniProt P06702).
T1 sequence (P06702 1-114): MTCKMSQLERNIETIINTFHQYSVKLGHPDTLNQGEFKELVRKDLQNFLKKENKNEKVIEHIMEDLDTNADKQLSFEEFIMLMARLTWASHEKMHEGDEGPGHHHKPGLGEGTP
Briefly: ELISA-based binding affinity of MRP-14-targeted TMV, human protein. Conditions: read-out: KD (nM) human MRP-14, hS100A9 2 μg/mL coated, TMV 0-5 μg/mL, anti-TMV detection, single-site binding model, estimated.

For another test, the target named is T2, mouse MRP-14 (mS100A9) (Mus musculus, UniProt P31725).
T2 sequence (P31725 1-113): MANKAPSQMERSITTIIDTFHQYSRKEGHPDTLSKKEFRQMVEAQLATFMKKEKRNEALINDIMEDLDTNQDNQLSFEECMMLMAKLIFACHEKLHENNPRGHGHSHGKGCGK
Description: ELISA-based binding affinity of MRP-14-targeted TMV, mouse protein. Conditions: for Kd: read-out: KD (nM) mouse MRP-14, ELISA, mS100A9 2 μg/mL coated, TMV 0-5 μg/mL, anti-TMV detection, single-site binding model, estimated.

The test system of test [1] is deep vein thrombi in inferior vena cava. Description: Murine DVT model. Conditions: vs PBS group, 3 h postinjection. It counts as in vivo, mouse.
Test [2] concerns the target T3, MRP-8/14 heterodimer (untagged MRP-8 premixed 1:1 with His-tagged MRP-14) (human | , UniProt P06702;P05109).
T3 sequence 1: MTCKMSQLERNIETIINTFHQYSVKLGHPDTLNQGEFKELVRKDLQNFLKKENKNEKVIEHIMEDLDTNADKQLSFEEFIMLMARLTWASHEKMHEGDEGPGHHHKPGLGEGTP
T3 sequence 2: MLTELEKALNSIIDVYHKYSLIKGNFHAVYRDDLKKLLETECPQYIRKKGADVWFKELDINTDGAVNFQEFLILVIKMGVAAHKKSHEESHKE
Briefly: SPR.

Test [3] addresses T4, His-tagged MRP-14 (myeloid related protein 14) (human, UniProt P06702 1-114).
T4 sequence: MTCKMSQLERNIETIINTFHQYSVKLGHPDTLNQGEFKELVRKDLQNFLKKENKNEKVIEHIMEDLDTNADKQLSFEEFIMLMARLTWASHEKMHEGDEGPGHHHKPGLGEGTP
Briefly: SPR. (In general: In SPR one partner is held on a chip, and binding of the other changes the refractive index at the surface.)

Here are results for 6 molecules from article PMC9679916 (Biomacromolecules, 2021).

Bridges are numbered along the chain shown (N, C = ends). Where no end group is shown, it is not given here.

Regarding “ACNSVHQHHCGGGS-N3 (disulfide) [TMV-MTP6]”, the values for the Kd on human MRP-14 (hS100A9) and at mouse MRP-14 (mS100A9) were 11.4 nM and 2.6 nM, respectively. Moreover, the “binding affinity, times stronger toward mouse than human MRP-14” value at mouse MRP-14 (mS100A9) (ratio of ELISA KD values, mouse vs human MRP-14) is ~ 4 times.
Turning to ASSHIHHGGGS-C [CPMV-MTP2], the “reduction in thrombus weight and area” value in test [1] worked out at 50%.
Turning to ASSHIHHGGGS-C [TMV-MTP2], the figures for the Kd on human MRP-14 (hS100A9) and on mouse MRP-14 (mS100A9) were 13.1 nM and 11.9 nM, respectively.
Consider ACNSVHQHHCGGGS [MTP6 synthetic peptide with GGGS spacer], for which the values for the Kd in test [2] and in test [3] were 57.6 µM and 39.6 µM, respectively.
Turning to HNHMADPGGGS-NH2 [MTP3 synthetic peptide with GGGS spacer], in test [3], the Kd was 117 µM.
The same measure, in the same setting: the value for ACNSHRHGACGGGS-NH2 (disulfide 2-10 (inferred)) [MTP5 synthetic peptide with GGGS spacer] was 67.6 µM.
